Reference: the supplement of paper PMC11061612

Key:
[1] = tested on: NCI-H2342 (Lung Adenocarcinoma); assay: combination Emax (second highest fraction inhibited in the dose matrix, 72 h); higher = more inhibition; extreme values may be limits of the assay
Method in brief: (§1)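 Cell lines grown in DMEM/F12 or RPMI with 10% FBS were plated in 1536-well plates and held 24 hours at 37°C, 5% CO2 before 72 hours of exposure to two-drug dose matrices, with DMSO typically at 0.2%. CellTiter-Glo 2.0 luminescence gave viability, which was converted to inhibition. Vehicle wells were set to 0 and blank wells to 1. Combination Emax is the second-highest inhibition in the matrix, and Bliss excess is the observed combination effect minus the expected EA + EB − EA·EB, where EA and EB are the single-agent effects.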

[2] = tested on: TE-8 (Esophageal Squamous Cell Carcinoma); assay: as above
Method in brief: as §1

[3] = tested on: MFE-280 (Endometrial Carcinoma); assay: as above
Method in brief: as §1

[4] = tested on: LK-2 (Squamous Cell Lung Carcinoma); assay: as above
Method in brief: as §1

[5] = tested on: RKN (Other Solid Carcinomas); assay: as above
Method in brief: as §1

[6] = tested on: PSN1 (Pancreatic Carcinoma); assay: as above
Method in brief: as §1

[7] = tested on: SK-MEL-2 (Melanoma); assay: as above
Method in brief: as §1

[8] = tested on: CAL-62 (Thyroid Gland Carcinoma); assay: as above
Method in brief: as §1

[9] = tested on: REH (B-Lymphoblastic Leukemia); assay: as above
Method in brief: as §1

[10] = tested on: COLO-680N (Esophageal Squamous Cell Carcinoma); assay: as above
Method in brief: as §1

[11] = tested on: VAL (B-Cell Non-Hodgkin's Lymphoma); assay: as above
Method in brief: as §1

[12] = tested on: HSC-39 (Gastric Carcinoma); assay: as above
Method in brief: as §1

[13] = tested on: MKN45 (Gastric Carcinoma); assay: as above
Method in brief: as §1

[14] = tested on: PC-3_[JPC-3] (Lung Adenocarcinoma); assay: as above
Method in brief: as §1

[15] = tested on: RCM-1 (Colorectal Carcinoma); assay: as above
Method in brief: as §1

[16] = tested on: SHP-77 (Small Cell Lung Carcinoma); assay: as above
Method in brief: as §1

[17] = tested on: NCI-H2342 (Lung Adenocarcinoma); assay: Bliss excess, mean over the matrix (fraction); higher = more synergy
Method in brief: as §1

[18] = tested on: PANC-03-27 (Pancreatic Carcinoma); assay: as above
Method in brief: as §1

[19] = tested on: HSC-39 (Gastric Carcinoma); assay: as above
Method in brief: as §1

[20] = tested on: MKN45 (Gastric Carcinoma); assay: as above
Method in brief: as §1
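For Bliss excess, mean over the matrix in this document: after 72 h of two-drug dosing.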

Row | SMILES | combination Emax [1] | combination Emax [2] | combination Emax [3] | combination Emax [4] | combination Emax [5] | combination Emax [6] | combination Emax [7] | combination Emax [8] | combination Emax [9] | combination Emax [10] | combination Emax [11] | combination Emax [12] | combination Emax [13] | combination Emax [14] | combination Emax [15] | combination Emax [16] | Bliss excess [17] | Bliss excess [18] | Bliss excess [19] | Bliss excess [20]
1 | C[C@@H](Oc1cc(-c2cnn(C3CCNCC3)c2)cnc1N)c1c(Cl)ccc(F)c1Cl [Crizotinib] + CC1=C(C(=CC=C1)Cl)NC(=O)C2=CN=C(S2)NC3=CC(=NC(=N3)C)N4CCN(CC4)CCO [Dasatinib] (first compound max 10 µM, 7x7, partner max 2 µM) | 0.37 | 0.838 | 0.661 | 0.765 | 0.567 | 0.777 | 0.0969 | 0.677 | 0.752 | 0.869 | 0.841 | 1 | 0.854 | 0.809 | 0.61 | 0.259 | -0.0108 | 0.0688 | 0.0093 | -0.048
2 | C[C@@H](Oc1cc(-c2cnn(C3CCNCC3)c2)cnc1N)c1c(Cl)ccc(F)c1Cl [Crizotinib] + Cn1cnc2c(F)c(Nc3ccc(Br)cc3Cl)c(C(=O)NOCCO)cc21 [Selumetinib] (first compound max 10 µM, 7x7, partner max 10 µM) | 0.285 | 0.631 | 0.28 | 0.749 | 0.48 | 0.963 | 0.881 | 0.564 | 0.721 | 0.319 | 0.758 | 0.975 | 0.902 | 0.242 | 0.761 | 0.411 | -0.0267 | -0.0689 | -0.0264 | -0.0192
3 | CS(=O)(=O)CCNCc1ccc(-c2ccc3ncnc(Nc4ccc(OCc5cccc(F)c5)c(Cl)c4)c3c2)o1 [Lapatinib] + Cn1cnc2c(F)c(Nc3ccc(Br)cc3Cl)c(C(=O)NOCCO)cc21 [Selumetinib] (first compound max 10 µM, 7x7, partner max 10 µM) | 0.257 | 0.521 | 0.274 | 0.485 | 0.369 | 0.748 | 0.793 | 0.477 | 0.237 | 0.408 | 0.597 | 0.99 | 0.635 | 0.653 | 0.754 | 0.387 | -0.0418 | 0.044 | -0.0089 | -0.0778
4 | CS(=O)(=O)CCNCc1ccc(-c2ccc3ncnc(Nc4ccc(OCc5cccc(F)c5)c(Cl)c4)c3c2)o1 [Lapatinib] + NC1(c2ccc(-c3nc4ccn5c(=O)[nH]nc5c4cc3-c3ccccc3)cc2)CCC1 [MK-2206] (first compound max 10 µM, 7x7, partner max 10 µM) | 0.196 | 0.52 | 0.911 | 0.892 | 0.346 | 0.562 | 0.692 | 0.721 | 0.957 | 0.467 | 0.898 | 0.933 | 0.617 | 0.927 | 0.514 | 0.633 | -0.0499 | -0.0064 | 0.104 | -0.0466
5 | O=C(c1cc(Cc2n[nH]c(=O)c3ccccc23)ccc1F)N1CCN(C(=O)C2CC2)CC1 [Olaparib] + CC1(C)CCC(CN2CCN(c3ccc(C(=O)NS(=O)(=O)c4ccc(NCC5CCOCC5)c([N+](=O)[O-])c4)c(Oc4cnc5[nH]ccc5c4)c3)CC2)=C(c2ccc(Cl)cc2)C1 [Venetoclax] (first compound max 10 µM, 7x7, partner max 1 µM) | 0.158 | 0.137 | 0.169 | 0.347 | 0.119 | 0.192 | 0.162 | 0.0638 | 0.966 | 0.0836 | 1 | 0.205 | 0.201 | 0.153 | 0.0674 | 0.258 | -0.0201 | -0.0675 | 0.0033 | -0.0424
6 | O=C(c1cc(Cc2n[nH]c(=O)c3ccccc23)ccc1F)N1CCN(C(=O)C2CC2)CC1 [Olaparib] + CN(CC[C@H](CSC1=CC=CC=C1)NC2=C(C=C(C=C2)S(=O)(=O)NC(=O)C3=CC=C(C=C3)N4CCC(CC4)[C@H](C5=CC=CC=C5C6=CC=C(C=C6)Cl)O)S(=O)(=O)C(F)(F)F)CCO [AZD4320] (first compound max 10 µM, 7x7, partner max 1 µM) | 0.178 | 0.175 | 0.598 | 0.573 | 0.149 | 0.21 | 0.234 | 0.16 | 0.986 | 0.11 | 1 | 0.268 | 0.164 | 0.138 | 0.17 | 0.315 | -0.018 | -0.0341 | -0.0172 | -0.0428
7 | O=C(c1cc(Cc2n[nH]c(=O)c3ccccc23)ccc1F)N1CCN(C(=O)C2CC2)CC1 [Olaparib] + COc1nnc2ccc(N3CCC(c4ccc(OCCN5CCN(C)C(=O)[C@H]5C)cc4)CC3)nn12 [AZD5153] (first compound max 10 µM, 7x7, partner max 1 µM) | 0.289 | 0.393 | 0.397 | 0.372 | 0.412 | 0.429 | 0.53 | 0.69 | 0.762 | 0.27 | 0.771 | 0.762 | 0.409 | 0.182 | 0.522 | 0.3 | -0.0253 | -0.0776 | -0.072 | -0.0794
